The text below walks through data of US8916551B2, “Heterocyclic compound and use thereof” (Takeda Pharmaceutical Company Limited, priority 2010, dated 2014).

The term melting point denotes the temperature, or range, at which the solid turns liquid.

In data set [1] the target is T1, AMPA receptor (human GluR1 flip/stargazin expressed in CHO-K1 cells) (Homo sapiens, UniProt P42261).
T1 construct: expressed in transfected cells; host or cells: CHO-K1
Description: AMPA receptor function enhancing activity using calcium influx as index. It is filed as cell-based. The conditions noted are these: 100% = 3 mM glutamic acid + 300 μM cyclothiazide, 0% = 3 mM glutamic acid only. The method, boiled down: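 CHO-K1 clone stably co-expressing human GluR1 flip and stargazin, loaded with Calcium 4 dye plus probenecid. Compound at 30 μM was added with glutamate (3 mM final) and fluorescence change followed over 3 min. Activity is expressed as % of the 3 mM glutamate plus 300 μM cyclothiazide response, with glutamate alone as 0%.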

[2] abbreviates: test compound 30 μM with glutamic acid final 3 mM, change in fluorescence in 3 min.
The mark [3] stands for this setting: test compound 30 μM with 3 mM glutamic acid, change in fluorescence level in 3 min.

T1 sequence (P42261 19-906 isoform P42261-2 limits assumed): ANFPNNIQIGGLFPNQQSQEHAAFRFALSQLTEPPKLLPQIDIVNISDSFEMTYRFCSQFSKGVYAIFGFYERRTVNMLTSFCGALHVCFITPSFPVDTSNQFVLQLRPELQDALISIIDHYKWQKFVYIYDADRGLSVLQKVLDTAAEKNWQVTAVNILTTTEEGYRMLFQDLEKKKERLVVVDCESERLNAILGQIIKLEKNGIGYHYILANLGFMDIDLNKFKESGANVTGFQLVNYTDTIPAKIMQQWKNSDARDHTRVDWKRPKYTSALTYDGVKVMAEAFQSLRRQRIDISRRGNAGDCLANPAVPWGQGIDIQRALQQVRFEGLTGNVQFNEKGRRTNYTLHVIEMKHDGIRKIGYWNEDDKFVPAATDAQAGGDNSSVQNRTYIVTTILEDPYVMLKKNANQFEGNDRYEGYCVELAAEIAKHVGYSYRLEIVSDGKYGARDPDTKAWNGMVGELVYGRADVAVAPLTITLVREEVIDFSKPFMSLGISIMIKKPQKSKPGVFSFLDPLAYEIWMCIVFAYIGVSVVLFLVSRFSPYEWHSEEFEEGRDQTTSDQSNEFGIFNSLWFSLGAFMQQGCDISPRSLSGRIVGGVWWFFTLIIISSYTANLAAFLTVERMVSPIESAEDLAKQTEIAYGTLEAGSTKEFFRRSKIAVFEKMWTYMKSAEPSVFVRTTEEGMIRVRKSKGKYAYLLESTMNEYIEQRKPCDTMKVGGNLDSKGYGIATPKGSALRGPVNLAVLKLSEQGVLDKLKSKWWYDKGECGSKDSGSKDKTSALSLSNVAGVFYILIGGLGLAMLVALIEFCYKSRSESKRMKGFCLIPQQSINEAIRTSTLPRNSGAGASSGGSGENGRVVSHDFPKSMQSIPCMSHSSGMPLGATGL
T1 sequence (Q9Y698 whole entry partner): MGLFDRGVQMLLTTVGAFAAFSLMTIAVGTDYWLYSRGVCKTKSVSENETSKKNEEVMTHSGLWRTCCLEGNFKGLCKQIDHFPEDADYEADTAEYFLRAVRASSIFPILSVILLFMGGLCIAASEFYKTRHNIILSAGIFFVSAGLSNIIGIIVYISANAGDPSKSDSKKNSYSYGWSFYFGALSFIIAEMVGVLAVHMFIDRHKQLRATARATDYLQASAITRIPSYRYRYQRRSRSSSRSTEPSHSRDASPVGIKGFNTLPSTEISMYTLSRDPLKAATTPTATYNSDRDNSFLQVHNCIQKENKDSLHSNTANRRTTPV

As for `O=S1(=O)CCN2CCC[C@@H](c3ccc(Oc4ccccc4)cc3)C2=N1` [Example 63, (9S)-9-(4-phenoxyphenyl)-3,4,6,7,8,9-hexahydropyrido[2,1-c][1,2,4]thiadiazine 2,2-dioxide], the melting point is 174 to 175 °C. The “activity (%)” value in data set [1] (setting [2]) is listed as 77%.

For the compound `Cc1ccc(Oc2ccc(C3=CC=CN4CCS(=O)(=O)N=C34)cc2)cc1` [Example 107, 9-[4-(4-methylphenoxy)phenyl]-3,4-dihydropyrido[2,1-c][1,2,4]thiadiazine 2,2-dioxide], the melting point is 248 to 249 °C. Further, the “activity (%)” value in data set [1] (setting [2]) amounted to 69%.

Consider `O=S1(=O)CCN2CCCC(c3ccc(-c4ccccc4)cc3)C2=N1` (stereo not shown) [Example 28, 9-biphenyl-4-yl-3,4,6,7,8,9-hexahydropyrido[2,1-c][1,2,4]thiadiazine 2,2-dioxide], for which the melting point is 238 to 239 °C. Also, the “activity (%)” value in data set [1] (setting [2]) turned out to be 80%.

The compound `O=S1(=O)CCN2C=CC=C(c3ccc(-c4ccccc4)cc3)C2=N1` [Example 14, 9-biphenyl-4-yl-3,4-dihydropyrido[2,1-c][1,2,4]thiadiazine 2,2-dioxide] gave a melting point of 315 to 316 °C. In addition, in data set [1] (setting [2]), the “activity (%)” value is on record as 78%.

Compound `O=S1(=O)CCN2C=CC=C(c3ccc(Oc4ccccc4)cc3)C2=N1` [Example 31, 9-(4-phenoxyphenyl)-3,4-dihydropyrido[2,1-c][1,2,4]thiadiazine 2,2-dioxide] gave a melting point of 252 to 253 °C. The “activity (%)” value in data set [1] (setting [2]) is listed as 79%.

Turning to `O=S1(=O)CCN2C=CC=C(c3ccc(OCC4CCOCC4)cc3)C2=N1` [Example 69, 9-[4-(tetrahydro-2H-pyran-4-ylmethoxy)phenyl]-3,4-dihydropyrido[2,1-c][1,2,4]thiadiazine 2,2-dioxide], the melting point lay in the range of 268 to 269 °C. Further, the “activity (%)” value in data set [1] (setting [2]) is on record as 71%.

The compound `O=S1(=O)CCN2C=CC=C(c3ccc(OCC4CCCO4)cc3)C2=N1` (stereo not shown) [Example 75, 9-[4-(tetrahydrofuran-2-ylmethoxy)phenyl]-3,4-dihydropyrido[2,1-c][1,2,4]thiadiazine 2,2-dioxide] showed a melting point of 222 to 223 °C. In addition, the “activity (%)” value in data set [1] (setting [2]) was determined as 81%.

Regarding `O=S1(=O)CCN2CCCC(c3ccc(-c4ccccc4)cc3)C2=N1` (stereo not shown) [Example 65, 9-biphenyl-4-yl-3,4,6,7,8,9-hexahydropyrido[2,1-c][1,2,4]thiadiazine 2,2-dioxide], the melting point lay within 224 to 227 °C. Besides, the “activity (%)” value in data set [1] (setting [2]) is listed as 78%.

Take `CC(C)c1ccc(C#CC2=CC=CN3CCS(=O)(=O)N=C23)cc1` [Example 26, 9-{[4-(1-methylethyl)phenyl]ethynyl}-3,4-dihydropyrido[2,1-c][1,2,4]thiadiazine 2,2-dioxide]: the melting point fell in the range of 258 to 262 °C. Besides, the “activity (%)” value in data set [1] (setting [2]) was determined as 87%.

As for `O=S1(=O)CCN2C=C(F)C=C(c3ccc(Oc4ccccc4)cc3)C2=N1` [Example 206, 7-fluoro-9-(4-phenoxyphenyl)-3,4-dihydropyrido[2,1-c][1,2,4]thiadiazine 2,2-dioxide], the melting point lay within 91.9 to 92 °C. Further, the “activity (%)” value in data set [1] (setting [3]) is listed as 84%.

Compound `CC(C)Oc1ccc(C2=CC=CN3CCS(=O)(=O)N=C23)cc1Cl` [Example 208, 9-[3-chloro-4-(1-methylethoxy)phenyl]-3,4-dihydropyrido[2,1-c][1,2,4]thiadiazine 2,2-dioxide] had a melting point of 239 to 240 °C. Moreover, the “activity (%)” value in data set [1] (setting [3]) stood at 79%.

Compound `O=S1(=O)CCN2CCC[C@@H](c3ccc(Oc4cc(F)c(F)c(F)c4)cc3)C2=N1` [Example 227, (9S)-9-[4-(3,4,5-trifluorophenoxy)phenyl]-3,4,6,7,8,9-hexahydropyrido[2,1-c][1,2,4]thiadiazine 2,2-dioxide] yielded a melting point of 180 to 181 °C. For the same compound, the “activity (%)” value in data set [1] (setting [3]) turned out to be 68%.

`CC(C)(C)COc1ccc(C2=CC=CN3CCS(=O)(=O)N=C23)cc1` [Example 67, 9-[4-(2,2-dimethylpropoxy)phenyl]-3,4-dihydropyrido[2,1-c][1,2,4]thiadiazine 2,2-dioxide] yielded a melting point of 258 to 259 °C. In addition, the “activity (%)” value in data set [1] (setting [2]) was determined as 68%.

`Cc1ccc(C(F)(F)c2ccc(C3CCCN4CCS(=O)(=O)N=C34)cc2)cc1` (stereo not shown) [Example 137, 9-{4-[difluoro(4-methylphenyl)methyl]phenyl}-3,4,6,7,8,9-hexahydropyrido[2,1-c][1,2,4]thiadiazine 2,2-dioxide]: the melting point lay in the range of 190 to 191 °C. The “activity (%)” value in data set [1] (setting [2]) was 61%.

For the compound `CC1=CN2CCS(=O)(=O)N=C2C(c2ccc(Oc3ccccc3)cc2)=N1` [Example 207, 7-methyl-9-(4-phenoxyphenyl)-3,4-dihydropyrazino[2,1-c][1,2,4]thiadiazine 2,2-dioxide], the melting point is 92 to 92.5 °C. For the same compound, the “activity (%)” value in data set [1] (setting [3]) is listed as 78%.

`O=S1(=O)CCN2CCCC(c3ccc(Oc4ccc(C(F)(F)F)cc4)cc3)C2=N1` (stereo not shown) [Example 232, 9-{4-[4-(trifluoromethyl)phenoxy]phenyl}-3,4,6,7,8,9-hexahydropyrido[2,1-c][1,2,4]thiadiazine 2,2-dioxide] registered a melting point of 174 to 176 °C. In addition, the “activity (%)” value in data set [1] (setting [3]) is on record as 60%.

In turn, `Cc1cc(F)cc(Oc2ccc([C@@H]3CCCN4CCS(=O)(=O)N=C34)cc2)c1` [Example 236, (9S)-9-[4-(3-fluoro-5-methylphenoxy)phenyl]-3,4,6,7,8,9-hexahydropyrido[2,1-c][1,2,4]thiadiazine 2,2-dioxide] registered a melting point of 158 to 159 °C. For the same compound, the “activity (%)” value in data set [1] (setting [3]) turned out to be 74%.

`O=S1(=O)CCN2C=C(Cl)C=C(c3ccc(OC4CCCCC4)cc3)C2=N1` [Example 73, 7-chloro-9-[4-(cyclohexyloxy)phenyl]-3,4-dihydropyrido[2,1-c][1,2,4]thiadiazine 2,2-dioxide] showed a melting point of 284 to 287 °C. In addition, in data set [1] (setting [2]), the “activity (%)” value was 75%.

On to `Cc1cc(F)ccc1Oc1ccc(C2=CC=CN3CCS(=O)(=O)N=C23)cc1` [Example 143, 9-[4-(4-fluoro-2-methylphenoxy)phenyl]-3,4-dihydropyrido[2,1-c][1,2,4]thiadiazine 2,2-dioxide], for which the melting point lay in the range of 240 to 242 °C. In addition, the “activity (%)” value in data set [1] (setting [3]) came out at 76%.

For `O=S1(=O)CCN2C=CC=C(c3ccc(Oc4ccc(Cl)cc4)cc3)C2=N1` [Example 147, 9-[4-(4-chlorophenoxy)phenyl]-3,4-dihydropyrido[2,1-c][1,2,4]thiadiazine 2,2-dioxide], the melting point lay within 232 to 234 °C. Further, in data set [1] (setting [3]), the “activity (%)” value amounted to 70%.

For `O=S1(=O)CCN2C=CN=C(c3ccc(OC4CCCCC4)cc3)C2=N1` [Example 68, 9-[4-(cyclohexyloxy)phenyl]-3,4-dihydropyrazino[2,1-c][1,2,4]thiadiazine 2,2-dioxide], the melting point lay in the range of 239 to 240 °C. For the same compound, the “activity (%)” value in data set [1] (setting [2]) turned out to be 77%.

As to `N#Cc1ccc(Oc2ccc(C3CCCN4CCS(=O)(=O)N=C34)cc2)cc1Cl` (stereo not shown) [Example 183, 2-chloro-4-[4-(2,2-dioxido-3,4,6,7,8,9-hexahydropyrido[2,1-c][1,2,4]thiadiazin-9-yl)phenoxy]benzonitrile], the melting point was in the range of 219 to 220 °C. For the same compound, in data set [1] (setting [3]), the “activity (%)” value came to 91%.

With `O=S1(=O)CCN2C=CC=C(c3ccc(Oc4ccccc4)nc3)C2=N1` [Example 191, 9-(6-phenoxypyridin-3-yl)-3,4-dihydropyrido[2,1-c][1,2,4]thiadiazine 2,2-dioxide], the melting point lay in the range of 244 to 245 °C. Moreover, the “activity (%)” value in data set [1] (setting [3]) stood at 74%.

As for `O=S1(=O)CCN2CCCC(c3ccc(Oc4ccc(Cl)cc4)cc3)C2=N1` (stereo not shown) [Example 148, 9-[4-(4-chlorophenoxy)phenyl]-3,4,6,7,8,9-hexahydropyrido[2,1-c][1,2,4]thiadiazine 2,2-dioxide], the melting point was 215 to 216 °C. In addition, the “activity (%)” value in data set [1] (setting [3]) stood at 73%.

`COc1cccc(Oc2ccc([C@@H]3CCCN4CCS(=O)(=O)N=C34)cc2)c1` [Example 219, (9S)-9-[4-(3-methoxyphenoxy)phenyl]-3,4,6,7,8,9-hexahydropyrido[2,1-c][1,2,4]thiadiazine 2,2-dioxide]: the melting point is 139 to 140 °C. Moreover, the “activity (%)” value in data set [1] (setting [3]) is on record as 83%.

`O=S1(=O)CCN2C=CC=C(c3ccc(Oc4ccc(O)cc4)cc3)C2=N1` [Example 198, 4-[4-(2,2-dioxido-3,4-dihydropyrido[2,1-c][1,2,4]thiadiazin-9-yl)phenoxy]phenol] yielded a melting point of 289 to 290 °C. Besides, the “activity (%)” value in data set [1] (setting [3]) amounted to 87%.

With `COc1ccc2ccc(OC3=CC=CN4CCS(=O)(=O)N=C34)cc2c1` [Example 59, 9-[(7-methoxynaphthalen-2-yl)oxy]-3,4-dihydropyrido[2,1-c][1,2,4]thiadiazine 2,2-dioxide], the melting point was 235 to 237 °C. The “activity (%)” value in data set [1] (setting [2]) was found to be 72%.

On to `CC(F)(F)c1cccc(Oc2ccc(C3CCCN4CCS(=O)(=O)N=C34)cc2)c1` (stereo not shown) [Example 157, 9-{4-[3-(1,1-difluoroethyl)phenoxy]phenyl}-3,4,6,7,8,9-hexahydropyrido[2,1-c][1,2,4]thiadiazine 2,2-dioxide], for which the melting point was in the range of 117 to 118 °C. In addition, the “activity (%)” value in data set [1] (setting [3]) was found to be 89%.

`O=S1(=O)CCN2CCCC(c3ccc(-c4ccccc4)cc3)C2=N1` (stereo not shown) [Example 64, 9-biphenyl-4-yl-3,4,6,7,8,9-hexahydropyrido[2,1-c][1,2,4]thiadiazine 2,2-dioxide] had a melting point of 220 to 222 °C. For the same compound, the “activity (%)” value in data set [1] (setting [2]) is listed as 73%.
